We go through twelve compounds from patent publication US20240217978A1 (CHONG KUN DANG PHARMACEUTICAL CORP., priority 2021, published 2024).

human adenosine A2a receptor, sequence (P29274 whole entry): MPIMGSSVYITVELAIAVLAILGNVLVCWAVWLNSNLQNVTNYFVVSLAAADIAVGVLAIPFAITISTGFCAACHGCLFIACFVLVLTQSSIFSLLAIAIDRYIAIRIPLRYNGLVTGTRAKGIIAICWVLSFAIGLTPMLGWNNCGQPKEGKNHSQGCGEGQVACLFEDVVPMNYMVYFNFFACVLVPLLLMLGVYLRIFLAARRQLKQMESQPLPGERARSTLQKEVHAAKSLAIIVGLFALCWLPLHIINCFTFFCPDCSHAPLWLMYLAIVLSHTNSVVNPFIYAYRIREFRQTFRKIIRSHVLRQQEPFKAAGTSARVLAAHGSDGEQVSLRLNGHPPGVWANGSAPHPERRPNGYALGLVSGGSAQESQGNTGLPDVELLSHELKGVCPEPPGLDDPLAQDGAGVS

For the assay, the target named is human adenosine A2a receptor (Homo sapiens (Human), UniProt P29274). In words: A2a receptor binding affinity, [3H]-NECA radioligand binding test. The conditions noted are these: [3H]-NECA 37 nM; membrane from HEK-293 cells transfected with human adenosine A2a receptor. The method, then:
The binding affinity of the compounds according to Examples of the present invention to the human adenosine A2a receptor was evaluated by entrusting SB drug discovery in the UK.
A radioligand binding test was conducted by using [3H]-NECA (5′-N-[adenine-2,8-3H]-ethylcarboxamidoadenosine) and an adenosine A2a membrane. As the adenosine A2a membrane, a cell membrane prepared from HEK-293 cells transfected with human adenosine A2a receptor was used. The membrane used for the test was prepared by incubating with a radioligand until equilibrium was reached. In order to separate the radioligand-bound membrane, the unbound radioligand was separated by using Packard filtermate Harverster and glass filter plates.
10 μL of test compound dissolved in binding buffer (50 mM Tris, 10 mM MgCl2, 1 mM EDTA pH 7.4) and 20 μL of [3H]-NECA (final concentration of 37 nM) or reference inhibitor was mixed with 20 μL of A2a membrane in an unbound 96-well plate and incubated at room temperature for one hour. Prior to filtration, a 96-well harvest filter plate was coated with 0.33% polyethylenimine for 30 minutes and then washed with assay buffer. The binding reaction was transferred to the filter plate and washed three times with wash buffer. The dish was then dried, scintillant was added, and radioactivity was counted in a scintillation counter (Topcount NXT, Packard).
The binding affinity IC50 (μM) for the human adenosine A2a receptor obtained according to the above experimental method is shown in the table below.
Consider `COCCN1CCN(C(=O)[C@@H](Nc2nc(N)n3nc(-c4ccco4)nc3n2)C(C)C)CC1` [Example 60, (S)-2-((7-amino-2-(furan-2-yl)-[1,2,4]triazolo[1,5-a][1,3,5]triazin-5-yl)amino)-1-(4-(2-methoxyethyl)piperazin-1-yl)-3-methylbutan-1-one], for which the IC50 amounted to 18 nM.
To `Cc1cccc(NC(=O)N2CCN(C(=O)[C@@H]3CCCN3c3nc(N)n4nc(-c5ccco5)nc4n3)CC2)c1` [Example 61, 4-((7-amino-2-(furan-2-yl)-[1,2,4]triazolo[1,5-a][1,3,5]triazin-5-yl)-L-prolyl)-N-(m-tolyl)piperazin-1-carboxamide] belongs 3 nM; to `COc1ccc(NC(=O)N2CCN(C(=O)[C@@H]3CCCN3c3nc(N)n4nc(-c5ccco5)nc4n3)CC2)cc1` [Example 62, 4-((7-amino-2-(furan-2-yl)-[1,2,4]triazolo[1,5-a][1,3,5]triazin-5-yl)-L-prolyl)-N-(4-methoxyphenyl)piperazin-1-carboxamide], 6 nM; to `COc1cccc(C(=O)N2CCN(C(=O)[C@@H]3CCCN3c3nc(N)n4nc(-c5ccco5)nc4n3)CC2)c1` [Example 63], 1 nM.
To `Nc1nc(N2CCC[C@H]2C(=O)N2CCN(C(=O)c3ccc(F)cc3F)CC2)nc2nc(-c3ccco3)nn12` [Example 64, (4-((7-amino-2-(furan-2-yl)-[1,2,4]triazolo[1,5-a][1,3,5]triazin-5-yl)-L-prolyl)piperazin-1-yl)(2,4-difluorophenyl)methanone] belongs 14 nM; to `Nc1nc(N2CC[C@H]2C(=O)N2CCN(CC(=O)N3CCOCC3)CC2)nc2nc(-c3ccco3)nn12` [Example 65, (S)-2-(4-(1-(7-amino-2-(furan-2-yl)-[1,2,4]triazolo[1,5-a][1,3,5]triazin-5-yl)azetidine-2-carbonyl)piperazin-1-yl)-1-morpholinoethan-1-one], 10 nM.
Next, `CC(c1ccccc1)N1CCN(C(=O)[C@@H]2CCCN2c2nc(N)n3nc(-c4ccco4)nc3n2)CC1` (stereo partly drawn) [Example 66]: 7 nM; `Nc1nc(N2CCC[C@H]2C(=O)N2CCN(c3ccc(F)cc3F)CC2)nc2nc(-c3nccs3)nn12` [Example 67, (S)-(1-(7-amino-2-(thiazol-2-yl)-[1,2,4]triazolo[1,5-a][1,3,5]triazin-5-yl)pyrrolidin-2-yl)(4-(2,4-difluorophenyl)piperazin-1-yl)methanone]: 3 nM.
Turning to `Nc1nc(N2CCC[C@H]2C(=O)N2CCN(S(=O)(=O)CC3CC3)CC2)nc2nc(-c3ccco3)nn12` [Example 68, (S)-(1-(7-amino-2-(furan-2-yl)-[1,2,4]triazolo[1,5-a][1,3,5]triazin-5-yl)pyrrolidin-2-yl)(4-((cyclopropylmethyl)sulfonyl)piperazin-1-yl)methanone], the IC50 is 9 nM.
For the compound `Nc1nc(N2CCC[C@H]2C(=O)N2CCN(S(=O)(=O)C3CC3)CC2)nc2nc(-c3ccco3)nn12` [Example 69, (S)-(1-(7-amino-2-(furan-2-yl)-[1,2,4]triazolo[1,5-a][1,3,5]triazin-5-yl)pyrrolidin-2-yl)(4-(cyclopropylsulfonyl)piperazin-1-yl)methanone], the IC50 worked out at 68 nM.
To `Nc1nc(N2CCC[C@H]2C(=O)N2CCN(S(=O)(=O)CCOc3ccccc3)CC2)nc2nc(-c3ccco3)nn12` [Example 70, (S)-(1-(7-amino-2-(furan-2-yl)-[1,2,4]triazolo[1,5-a][1,3,5]triazin-5-yl)pyrrolidin-2-yl)(4-((2-phenoxyethyl)sulfonyl)piperazin-1-yl)methanone] belongs 4 nM; to `CC(C)S(=O)(=O)N1CCN(C(=O)[C@@H]2CCCN2c2nc(N)n3nc(-c4ccco4)nc3n2)CC1` [Example 71, (S)-(1-(7-amino-2-(furan-2-yl)-[1,2,4]triazolo[1,5-a][1,3,5]triazin-5-yl)pyrrolidin-2-yl)(4-(isopropylsulfonyl)piperazin-1-yl)methanone], 10 nM.

What is called IC50 is the concentration that inhibits the measured activity by half. Read a low IC50 as inhibition by little substance.
